The target of assay [1] is T1, hKCNK3 (Homo sapiens, UniProt O14649).
T1 construct: expressed in transfected cells; host or cells: Xenopus laevis oocytes injected with cRNA (plasmid pIRES-CD8, gift of Dr. Fabrice Duprat)
The assay is described as follows: Two-electrode voltage clamp on Xenopus laevis oocytes expressing hKCNK3. In kind it is cell-based. The note with it: for % of basal activity after saturating concentrations: hKCNK3 in Xenopus oocytes; for effect on basal activity of hKCNK3: 1 mM. The source says:
Human KCNK3 (TASK-1, K2P3.1) cloned into the expression vector pIRES-CD8 was a gift from Dr. Fabrice Duprat (Institut National de la Santé et de la Recherche Médicale, Antipolis, France). Human KCNK18 (hTRESK, K2P18.1), cloned into the plasmid pEXO, was a gift from Dr. P. Enyedi (Semmelweis University, Budapest, Hungary). These plasmids were linearized with the restriction enzymes BamHI and XbaI, respectively, and then used as templates for in vitro transcription. Human KCNK9 (hTASK-3, K2P9.1) cloned into the expression vector pCR4-TOPO, was purchased from Imagenes (Berlin, Germany). The plasmid was linearized with the restriction enzyme SspI, to generate a linear cDNA template for in vitro transcription. mKCNK3 was isolated from mouse heart by standard procedures and inserted into pSGEM. mKCNK9 and mKCNK18 were kindly provided by Dr. D. Bayliss (University of Virginia, Charlottesville, VA, United States) and Prof. Dr. P. Enyedi (Semmelweis University, Budapest, Hungary). Both channels were subcloned into pSGEM. The pSGEM plasmids were subsequently linearized with the restriction enzyme PacI. The capped RNAs were synthesized in the presence of the capping analog m7G(5′)ppp(5′)G using the AmpliCap-T7 Message Maker kit (Epicentre, Madison, WI, United States). The cRNA was dissolved in nuclease-free water to obtain a final concentration of 100 ng/μL.
The expression in Xenopus laevis oocytes was essentially performed as previously described ([Beltrán et al., 2013]). Briefly, mature female Xenopus laevis frogs were anesthetized with 0.15% MS-222, and surgery was performed according to standard methods, where the extracted ovarian lobes were placed into Ca^2+-free Barth solution containing collagenase type II (Worthington Biochemical Corporation, Lakewood, NJ, United States) and kept for 90 min on a shaker at 40 rpm (room temperature). Healthy stage V and VI oocytes were selected for injection with cRNA coding for the proteins of interest. Thirty nanoliters of cRNA (100 ng/μL) of each channel were injected using a Microinjector Micro 4 ^TM (World Precision Instruments). After injection, the oocytes were kept in ND96 (96 mM NaCl; 2 mM KCl; 1.8 mM CaCl2; 1 mM MgCl2; 2.5 mM Sodium pyruvate; 10 mM, HEPES [4-(2-hydroxyethyl)-1-piperazineethanesulfonic acid), pH 7.4]. The measurements were performed 24 to 72 h after injection. The oocytes were placed in a 100 μL chamber that was perfused with frog Ringer’s solution (115 mM NaCl; 2.5 mM KCl; 1.8 mM CaCl2, and 10 mM HEPES, pH 7.2). The substances were dissolved in this solution before being manually applied to the oocytes using an automatic pipette (Research pro, Eppendorf, Germany). The application time was usually three ramps (approximately 10 s). For recording, a Turbo Tec-03x (npi electronic GmbH, Tamm, Germany) amplifier was used, with an acquisition rate of 1000 Hz and a low pass filter of 20 Hz. Borosilicate glass capillaries were pulled with a Kopf vertical pipette puller. The pulled glass capillaries were filled with 3 M KCl.
A ramp series protocol was used to evaluate the activity of KCNK channels as previously described ([Beltrán et al., 2013]). Briefly, voltage ramps from –100 mV to + 50 mV ([…]) followed by a constant of +50 mV (150 ms) were applied at a time interval of 2 s. […] This value was then normalized to the average obtained from three ramps prior to the application. In most cases, the currents elicited by this voltage-clamp ramp series protocol were more than ten times larger than the background currents observed in uninjected oocytes, while also presenting the described outward rectification under physiological concentrations of intracellular and extracellular K^+ ([Goldstein et al., 2001]; [Enyedi and Czirják, 2010]). Due to these characteristics, no leakage subtraction was considered necessary. Oocytes not fulfilling these characteristics were not considered for data analysis. […]

In assay [2] the test system is tongue surface. Details: method as in Dawid et al., 2012. The settings on record: human, filter paper on tongue; ref Dawid et al., 2012; cited from earlier work.
Where [3] appears, read: Xenopus oocytes, current at +50 mV normalized to pre-application, read-out: IC50 on hKCNK3.

Results on 11 compounds are retold here after article PMC5483439, “The Effect of Pungent and Tingling Compounds from Piper nigrum L. on Background K^+ Currents” (Frontiers in Pharmacology, 2017).

Like-named read-outs stand apart in the source and are kept apart here.

Broadly, the IC50 is the concentration that inhibits the measured activity by half.

T1 sequence (O14649 whole entry): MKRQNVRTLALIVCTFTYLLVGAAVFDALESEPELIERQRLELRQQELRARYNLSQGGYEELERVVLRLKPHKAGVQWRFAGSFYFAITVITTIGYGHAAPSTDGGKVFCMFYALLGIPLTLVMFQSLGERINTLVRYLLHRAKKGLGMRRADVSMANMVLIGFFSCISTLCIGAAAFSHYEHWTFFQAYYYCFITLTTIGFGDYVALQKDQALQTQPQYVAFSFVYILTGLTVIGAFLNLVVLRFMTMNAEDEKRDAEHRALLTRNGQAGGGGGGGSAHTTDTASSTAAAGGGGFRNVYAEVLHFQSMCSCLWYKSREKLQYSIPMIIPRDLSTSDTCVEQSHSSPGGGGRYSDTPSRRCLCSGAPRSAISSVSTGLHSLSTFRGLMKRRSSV

Consider `CC(C)CNC(=O)/C=C/C=C/CCCCCC/C=C/c1ccc2c(c1)OCO2` [4c, guineensine], for which, in assay [1], the IC50 amounted to 90.9 ± 12.7 µM and the “% of basal activity after saturating concentrations” value (“% of basal activity” for short) is 48 ± 2.8%. Besides, the pungent threshold concentration in assay [2] is on record as 810.1 nmol/cm^2.

On to `CCCC/C=C\CCCCCCC/C=C/C=C/C(=O)NCC(C)C` [5c, (2E,4E,13Z)-N-isobutyl-octadeca-2,4,13-trienamide], for which, in assay [2], the pungent threshold concentration is given as 540.5 nmol/cm^2 and the tingling threshold concentration was 2162.1 nmol/cm^2.

As to `O=C(/C=C/C=C/CC/C=C/c1ccc2c(c1)OCO2)N1CCCCC1` [3a, dehydropipernonaline], the concentration for half-maximal inhibition (IC50) in assay [1] (setting [3]) came to 44 ± 6.7 µM. Moreover, in assay [1], the “% of basal activity” value is listed as 39 ± 1%. Also, in assay [2], the pungent threshold concentration is given as 152.1 nmol/cm^2.

For `CCCC/C=C\CCCCCCCCC/C=C/C=C/C(=O)NCC(C)C` [8c, (2E,4E,15Z)-N-isobutyl-eicosa-2,4,15-trienamide], in assay [2], the pungent threshold concentration was 741.2 nmol/cm^2 and the tingling threshold concentration is recorded as 1482.3 nmol/cm^2.

As for `O=C(/C=C/C=C/C=C/c1ccc2c(c1)OCO2)N1CCCCC1` [2a, piperettine], the pungent threshold concentration in assay [2] is reported as 5.2 nmol/cm^2.

With `O=C(/C=C/C=C/CCCCCC/C=C/c1ccc2c(c1)OCO2)N1CCCC1` [4b, brachyamide A], the “effect on basal activity of hKCNK3” value in assay [1] (Xenopus oocytes) is recorded as “most pronounced effect”. Moreover, the concentration for half-maximal inhibition (IC50) in assay [1] (setting [3]) was 32 ± 11 µM. In assay [1], the “% of basal activity” value amounted to 51 ± 5%.

Take `O=C(/C=C/C=C/CC/C=C/c1ccc2c(c1)OCO2)N1CCCC1` [3b, 1-[1-oxo-9(3,4-methylenedioxyphenyl)-2E,4E,8E-nonatrienyl]-pyrrolidine]: the “effect on basal activity of hKCNK3” value in assay [1] (Xenopus oocytes) was “most pronounced effect”. Besides, in assay [1] (setting [3]), the IC50 came out at 49.6 ± 8.5 µM. Also, in assay [1], the “% of basal activity” value is listed as 35 ± 3%.

Consider `CCCCC/C=C\CCCCCC/C=C/C=C/C(=O)NCC(C)C` [6c, (2E,4E,12Z)-N-isobutyl-octadeca-2,4,12-trienamide], for which, in assay [2], the pungent threshold concentration is 540.5 nmol/cm^2 and the tingling threshold concentration is reported as 2162.1 nmol/cm^2.

Turning to `CCCCCCCCCCCCC/C=C/C=C/C(=O)NCC(C)C` [7c, (2E,4E)-N-isobutyl-octadeca-2,4-dienamide], the pungent threshold concentration in assay [2] was 763.0 nmol/cm^2.

Take `CCCCC/C=C\CCCCCCCC/C=C/C=C/C(=O)NCC(C)C` [9c, (2E,4E,14Z)-N-isobutyl-eicosa-2,4,14-trienamide]: in assay [2], the pungent threshold concentration is given as 741.2 nmol/cm^2 and the tingling threshold concentration is on record as 1482.3 nmol/cm^2.

Turning to “(2E,4E,13/12Z)-N-isobutyl-octadeca-2,4,12/13-trienamide [5c/6c]”, the IC50 in assay [1] (setting [3]) stood at 70 ± 32.8 µM. The “% of basal activity” value in assay [1] is 57 ± 7%.
